Data: patent US20240299385A1 (ReWind Therapeutics NV, priority 2021, published 2024)

target: T1, human GPR17 receptor (Homo sapiens, UniProt Q13304); assay: Calcium mobilization functional assay (Fluo-8, FLIPR TETRA) in HEK-293 hGPR17 (Gα-q assay); format: cell-based; settings: antagonism of MDL29,951 (~EC80) induced Ca2+ signal; cell line (HEK-293 hGPR17 or HEK-293 Suchi5 hGPR17) not given
T1 construct: host or cells: HEK-293
Procedure: HEK-293 cells stably expressing the human GPR17 receptor (HEK-293 hGPR17) developed by Axxam (Bresso, Milan, Italy) were cultured at 37° C. in a humidified atmosphere of 5% CO2. Cells were grown in EMEM supplemented with FBS (10%), Penicillin/Streptomycin (1%), Ultraglutamine I (2 mM), puromycin (0.6 μg/mL), G418 (0.4 mg/mL), zeocin (50 μg/mL). This cell line was used to test the compound antagonistic activity by monitoring the Gα-q based signaling. Signaling via Gα-q leads to mobilization of calcium from internal stores. Elevated intracellular calcium levels can then be measured with calcium-sensitive fluorescent dyes (e.g., Fluo 8-No Wash Dye).
GPR17 activation leads to both an increase in intracellular calcium (via Gα-q) and a decrease in cAMP levels (via Gα-i), implicating that both of these pathways play a role for in vivo function.
Experiments were performed using the below cell lines, as described in part 1: • HEK-293 hGPR17 (used to study the compounds acting via Gα-q pathway) • HEK-293 Suchi5 hGPR17 (used to study the compounds acting via Gα-i pathway, where the Gα-i signaling is switched to a Gα-q signaling thanks to the Gα-i/q chimera Suchi5)
GPR17 activation was able to induce an endoplasmic reticulum calcium (Ca^2+) store release in cytosol which could be measured using the fluorescent Ca^2+ sensitive dye Fluo-8 No Wash Dye as readout.
HEK-293 hGPR17 and HEK-293 Suchi5 hGPR17 were seeded at a density of 15,000 cells/well into poly-D-lysine coated black 384-well plates with clear bottom in complete medium. Cells were incubated overnight at 37° C. in a humidified atmosphere of 5% CO2. Twenty-four hours after seeding, the culture medium was carefully removed manually and the cells were loaded for 60 minutes at room temperature with the Ca^2+ sensitive Fluo-8 No Wash Dye, according to manufacturer's instructions. Cells were then assayed using a fluorometric imaging plate reader (FLIPR^TETRA). Fluorescence (excitation: 470-495 nm; emission: 515-575 nm) was recorded during the experiment. […] After twenty minutes, a second injection of MDL29,951 at ˜EC80 (500 nM for HEK-293 hGPR17 and 2 nM for HEK-293 Suchi5 hGPR17) in assay buffer was performed at the FLIPR^TETRA and the signal of the emitted fluorescence was recorded for additional 2 minutes. All the compound injections and incubations were performed in duplicate. For data quality and data analysis the Screener® 16.0.6 (Genedata) software was used.

T1 sequence (Q13304 whole entry): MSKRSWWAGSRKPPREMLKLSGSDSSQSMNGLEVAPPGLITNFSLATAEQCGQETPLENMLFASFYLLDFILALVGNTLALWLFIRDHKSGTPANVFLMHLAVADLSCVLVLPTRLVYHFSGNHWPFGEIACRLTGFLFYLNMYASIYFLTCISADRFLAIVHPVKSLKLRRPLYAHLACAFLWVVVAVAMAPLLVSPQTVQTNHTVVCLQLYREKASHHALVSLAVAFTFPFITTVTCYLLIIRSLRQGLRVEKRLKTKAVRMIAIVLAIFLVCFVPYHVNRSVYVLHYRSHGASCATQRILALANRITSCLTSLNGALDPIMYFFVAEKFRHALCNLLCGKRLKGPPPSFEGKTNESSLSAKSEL

IC50 [nM] | SMILES
5000 to 50000 | CC(c1ccccn1)c1cc(S(=O)(=O)Nc2ccc(C#N)cc2F)c[nH]1 (centres unmarked)
500 to 5000 | Cc1[nH]c(-c2ccccc2)cc1S(=O)(=O)Nc1ccc(C#N)cc1F [Cpd 001, N-(4-cyano-2-fluorophenyl)-2-methyl-5-phenyl-1H-pyrrole-3-sulfonamide]
< 500 | N#Cc1ccc(NS(=O)(=O)c2c[nH]c(-c3ccccc3)c2)c(F)c1 [Cpd 002, N-(4-cyano-2-fluorophenyl)-5-phenyl-1H-pyrrole-3-sulfonamide]
< 500 | O=S(=O)(Nc1cc(F)c(Br)cc1F)c1c[nH]c(-c2ccccc2)c1 [Cpd 003, N-(4-bromo-2,5-difluoro-phenyl)-5-phenyl-1H-pyrrole-3-sulfonamide]
< 500 | N#Cc1ccc(NS(=O)(=O)c2c[nH]c(-c3cccc(F)c3)c2)c(F)c1 [Cpd 004, N-(4-cyano-2-fluoro-phenyl)-5-(3-fluorophenyl)-1H-pyrrole-3-sulfonamide]
< 500 | Cc1cccc(-c2cc(S(=O)(=O)Nc3ccc(C#N)cc3F)c[nH]2)c1 [Cpd 005, N-(4-cyano-2-fluoro-phenyl)-5-(m-tolyl)-1H-pyrrole-3-sulfonamide]
< 500 | N#Cc1ccc(NS(=O)(=O)c2c[nH]c(-c3cccc(Cl)c3)c2)c(F)c1 [Cpd 006, 5-(3-chlorophenyl)-N-(4-cyano-2-fluoro-phenyl)-1H-pyrrole-3-sulfonamide]
< 500 | N#Cc1ccc(NS(=O)(=O)c2c[nH]c(-c3ccc(F)cc3)c2)c(F)c1 [Cpd 007, N-(4-cyano-2-fluoro-phenyl)-5-(4-fluorophenyl)-1H-pyrrole-3-sulfonamide]
500 to 5000 | Cc1ccc(-c2cc(S(=O)(=O)Nc3ccc(C#N)cc3F)c[nH]2)cc1 [Cpd 008, N-(4-cyano-2-fluoro-phenyl)-5-(p-tolyl)-1H-pyrrole-3-sulfonamide]
500 to 5000 | N#Cc1ccc(NS(=O)(=O)c2c[nH]cc2-c2ccccc2)c(F)c1 [Cpd 009, N-(4-cyano-2-fluorophenyl)-4-phenyl-1H-pyrrole-3-sulfonamide]
< 500 | COc1cccc(-c2cc(S(=O)(=O)Nc3ccc(C#N)cc3F)c[nH]2)c1 [Cpd 010, N-(4-cyano-2-fluoro-phenyl)-5-(3-methoxyphenyl)-1H-pyrrole-3-sulfonamide]
500 to 5000 | N#Cc1ccc(NS(=O)(=O)c2c[nH]c(-c3ccc(Cl)cc3)c2)c(F)c1 [Cpd 011, 5-(4-chlorophenyl)-N-(4-cyano-2-fluoro-phenyl)-1H-pyrrole-3-sulfonamide]
5000 to 50000 | COc1ccc(-c2cc(S(=O)(=O)Nc3ccc(C#N)cc3F)c[nH]2)cc1 [Cpd 012, N-(4-cyano-2-fluoro-phenyl)-5-(4-methoxyphenyl)-1H-pyrrole-3-sulfonamide]
5000 to 50000 | N#Cc1ccc(NS(=O)(=O)c2c[nH]c(C(=O)c3ccccc3)c2)c(F)c1 [Cpd 013, 5-benzoyl-N-(4-cyano-2-fluoro-phenyl)-1H-pyrrole-3-sulfonamide]
< 500 | N#Cc1ccc(NS(=O)(=O)c2c[nH]c(-c3ccccc3F)c2)c(F)c1 [Cpd 014, N-(4-cyano-2-fluorophenyl)-5-(2-fluorophenyl)-1H-pyrrole-3-sulfonamide]
< 500 | Cc1ccccc1-c1cc(S(=O)(=O)Nc2ccc(C#N)cc2F)c[nH]1 [Cpd 015, N-(4-cyano-2-fluoro-phenyl)-5-(o-tolyl)-1H-pyrrole-3-sulfonamide]
< 500 | N#Cc1ccc(NS(=O)(=O)c2c[nH]c(-c3ccccc3Cl)c2)c(F)c1 [Cpd 016, 5-(2-chlorophenyl)-N-(4-cyano-2-fluoro-phenyl)-1H-pyrrole-3-sulfonamide]
< 500 | COc1ccccc1-c1cc(S(=O)(=O)Nc2ccc(C#N)cc2F)c[nH]1 [Cpd 017, N-(4-cyano-2-fluoro-phenyl)-5-(2-methoxyphenyl)-1H-pyrrole-3-sulfonamide]

IC50 [nM] | SMILES
500 to 5000 | N#Cc1ccc(NS(=O)(=O)c2c[nH]c(C3CCCC3)c2)c(F)c1 [Cpd 018, N-(4-cyano-2-fluorophenyl)-5-cyclopentyl-1H-pyrrole-3-sulfonamide]
500 to 5000 | N#Cc1ccc(NS(=O)(=O)c2c[nH]c(Cc3ccccc3)c2)c(F)c1 [Cpd 019, 5-benzyl-N-(4-cyano-2-fluoro-phenyl)-1H-pyrrole-3-sulfonamide]
500 to 5000 | N#Cc1ccc(NS(=O)(=O)c2cc(-c3ccccc3)[nH]c2F)c(F)c1 [Cpd 020, N-(4-cyano-2-fluorophenyl)-2-fluoro-5-phenyl-1H-pyrrole-3-sulfonamide]
500 to 5000 | N#Cc1ccc(NS(=O)(=O)c2c[nH]c(-c3cccc(C(F)(F)F)c3)c2)c(F)c1 [Cpd 021, N-(4-cyano-2-fluoro-phenyl)-5-[3-(trifluoromethyl)phenyl]-1H-pyrrole-3-sulfonamide]
5000 to 50000 | CC(C)c1cccc(-c2cc(S(=O)(=O)Nc3ccc(C#N)cc3F)c[nH]2)c1 [Cpd 022, N-(4-cyano-2-fluoro-phenyl)-5-(3-isopropylphenyl)-1H-pyrrole-3-sulfonamide]
< 500 | N#Cc1ccc(NS(=O)(=O)c2c[nH]c(-c3ccccc3)c2F)c(F)c1 [Cpd 023, N-(4-cyano-2-fluorophenyl)-4-fluoro-5-phenyl-1H-pyrrole-3-sulfonamide]
5000 to 50000 | N#Cc1ccc(NS(=O)(=O)c2c[nH]c(-c3ccncc3)c2)c(F)c1 [Cpd 024, N-(4-cyano-2-fluoro-phenyl)-5-(4-pyridyl)-1H-pyrrole-3-sulfonamide]
< 500 | N#Cc1cccc(-c2cc(S(=O)(=O)Nc3ccc(C#N)cc3F)c[nH]2)c1 [Cpd 025, N-(4-cyano-2-fluoro-phenyl)-5-(3-cyanophenyl)-1H-pyrrole-3-sulfonamide]
< 500 | N#Cc1ccc(NS(=O)(=O)c2c[nH]c(-c3ccccn3)c2)c(F)c1 [Cpd 026, N-(4-cyano-2-fluoro-phenyl)-5-(2-pyridyl)-1H-pyrrole-3-sulfonamide]
500 to 5000 | N#Cc1ccc(NS(=O)(=O)c2c[nH]c(-c3cccnc3)c2)c(F)c1 [Cpd 027, N-(4-cyano-2-fluoro-phenyl)-5-(3-pyridyl)-1H-pyrrole-3-sulfonamide]
< 500 | N#Cc1cc(F)c(NS(=O)(=O)c2c[nH]c(-c3ccccc3)c2)cc1F [Cpd 028, N-(4-cyano-2,5-difluoro-phenyl)-5-phenyl-1H-pyrrole-3-sulfonamide]
5000 to 50000 | Cc1cc(C#N)ccc1NS(=O)(=O)c1c[nH]c(-c2ccccc2)c1 [Cpd 029, N-(4-cyano-2-methyl-phenyl)-5-phenyl-1H-pyrrole-3-sulfonamide]
500 to 5000 | COc1cc(C#N)ccc1NS(=O)(=O)c1c[nH]c(-c2ccccc2)c1 [Cpd 030, N-(4-cyano-2-methoxy-phenyl)-5-phenyl-1H-pyrrole-3-sulfonamide]
500 to 5000 | Cc1cc(NS(=O)(=O)c2c[nH]c(-c3ccccc3)c2)ccc1C#N [Cpd 031, N-(4-cyano-3-methyl-phenyl)-5-phenyl-1H-pyrrole-3-sulfonamide]
5000 to 50000 | COc1ccc(NS(=O)(=O)c2c[nH]c(-c3ccccc3)c2)c(F)c1 [Cpd 032, N-(2-fluoro-4-methoxy-phenyl)-5-phenyl-1H-pyrrole-3-sulfonamide]
< 500 | Cc1c(S(=O)(=O)Nc2ccc(C#N)cc2F)c[nH]c1-c1ccccc1 [Cpd 033, N-(4-cyano-2-fluoro-phenyl)-4-methyl-5-phenyl-1H-pyrrole-3-sulfonamide]
< 500 | N#Cc1ccc(NS(=O)(=O)c2c[nH]cc2Cc2ccccc2)c(F)c1 [Cpd 034, 4-benzyl-N-(4-cyano-2-fluorophenyl)-1H-pyrrole-3-sulfonamide]
